This is an account of results in patent publication US8461378B2, “Purification of fluoroalkanesulfonate salts” (E.I. du Pont de Nemours and Company, priority 2010, dated 2013).

A short description of the data set: Solubility of TFESK in water and in aqueous K2SO3 solution. In kind it is physicochemical. The text has this: Therefore, TFESK was selectively crystallized from sulfite solutions.

On to `O=S(=O)([O-])C(F)(F)C(F)F.[K+]` [TFESK, Potassium 1,1,2,2-tetrafluoroethanesulfonate], for which the “solubility in 2M K2SO3 solution” value (2M K2SO3 solution) is 1-2 % by weight. The compound further displayed a solubility in water (water at 0° C.) of 25 % by weight.
